24 compounds from patent US9676757B2, “Heterocyclic compounds as NaV channel inhibitors and uses thereof” (Merck Patent GmbH, priority 2014, dated 2017) can be followed below.

Molecules are shown by their SMILES. Read-outs that look alike come from different tables or passages of the source. Where only a bound is given, the exact number is not on record here.

The experiment concerns the target Nav1.6 (Homo sapiens, UniProt Q9UQD0). The experiment is described as follows: Nav two-pulse protocol, IonWorks Quattro electrophysiology. Format: cell-based. The following applies: -120 mV to 0 mV, compound incubated 300 s. The procedure:
Compound Plate Preparation
Supplied compounds were sent as Assay Ready Plates, with 2 μL per well of compound in DMSO at 300× the final assay concentrations as described above and in the project proposal. All assay plates are stored at in a −80° C. freezer.
On the day of the assay, 198 μL of external solution was added to the appropriate assay plate and mixed thoroughly. This provided a 1:100 dilution. A further 1:3 dilution occurred upon addition to the cells in the IonWorks, giving a 1:300 dilution in total.
On each assay plate, at least 8 wells were reserved for vehicle control (0.3% DMSO) and at least 8 wells for each positive control specific to the cell line tested. The positive controls were tested in an 8-point dose response with 3-fold dilutions to determine an IC50 value for each run. The positive control compounds are outlined below.
Ion Channel Positive Control & Concentrations
Nav1.6/1.2 Lidocaine: 8, 3-fold dilutions starting at 100 μM
Electrophysiological Recording Solutions
The solutions for recording currents were are follows:
Amphotericin B was used to obtain electrical access to the cell interior at a final concentration of 200 μg/ml in internal recording solution.
Experimental Protocols & Data Analysis
Nav currents were evoked by stepping from a holding potential of −120 mV to 0 mV for 2.5 s (pulse 1), followed by a 5 ms inter-pulse interval, and stepping from a holding potential of −120 mV to 0 mV for 20 ms (pulse 2). The voltage protocol was applied (Pre), compounds added, incubated for 300 seconds, and the voltage protocol was applied a final time (Post) on the IonWorks Quattro.
The parameters measured were the maximum inward current evoked on stepping to 0 mV from the 1st and 2nd pulse. All data were filtered for seal quality, seal drop, and current amplitude. The peak current amplitude (Peak) was calculated before (Pre) and after (Post) compound addition to the amount of block was assessed by dividing the Post-compound current amplitude by the Pre-compound current amplitude. These procedures were implemented for the 1st and 2nd pulse.
Background: The patch-clamp technique gives a direct electrical read-out from membranes.

Chain of Nav1.6 (Q9UQD0 whole entry): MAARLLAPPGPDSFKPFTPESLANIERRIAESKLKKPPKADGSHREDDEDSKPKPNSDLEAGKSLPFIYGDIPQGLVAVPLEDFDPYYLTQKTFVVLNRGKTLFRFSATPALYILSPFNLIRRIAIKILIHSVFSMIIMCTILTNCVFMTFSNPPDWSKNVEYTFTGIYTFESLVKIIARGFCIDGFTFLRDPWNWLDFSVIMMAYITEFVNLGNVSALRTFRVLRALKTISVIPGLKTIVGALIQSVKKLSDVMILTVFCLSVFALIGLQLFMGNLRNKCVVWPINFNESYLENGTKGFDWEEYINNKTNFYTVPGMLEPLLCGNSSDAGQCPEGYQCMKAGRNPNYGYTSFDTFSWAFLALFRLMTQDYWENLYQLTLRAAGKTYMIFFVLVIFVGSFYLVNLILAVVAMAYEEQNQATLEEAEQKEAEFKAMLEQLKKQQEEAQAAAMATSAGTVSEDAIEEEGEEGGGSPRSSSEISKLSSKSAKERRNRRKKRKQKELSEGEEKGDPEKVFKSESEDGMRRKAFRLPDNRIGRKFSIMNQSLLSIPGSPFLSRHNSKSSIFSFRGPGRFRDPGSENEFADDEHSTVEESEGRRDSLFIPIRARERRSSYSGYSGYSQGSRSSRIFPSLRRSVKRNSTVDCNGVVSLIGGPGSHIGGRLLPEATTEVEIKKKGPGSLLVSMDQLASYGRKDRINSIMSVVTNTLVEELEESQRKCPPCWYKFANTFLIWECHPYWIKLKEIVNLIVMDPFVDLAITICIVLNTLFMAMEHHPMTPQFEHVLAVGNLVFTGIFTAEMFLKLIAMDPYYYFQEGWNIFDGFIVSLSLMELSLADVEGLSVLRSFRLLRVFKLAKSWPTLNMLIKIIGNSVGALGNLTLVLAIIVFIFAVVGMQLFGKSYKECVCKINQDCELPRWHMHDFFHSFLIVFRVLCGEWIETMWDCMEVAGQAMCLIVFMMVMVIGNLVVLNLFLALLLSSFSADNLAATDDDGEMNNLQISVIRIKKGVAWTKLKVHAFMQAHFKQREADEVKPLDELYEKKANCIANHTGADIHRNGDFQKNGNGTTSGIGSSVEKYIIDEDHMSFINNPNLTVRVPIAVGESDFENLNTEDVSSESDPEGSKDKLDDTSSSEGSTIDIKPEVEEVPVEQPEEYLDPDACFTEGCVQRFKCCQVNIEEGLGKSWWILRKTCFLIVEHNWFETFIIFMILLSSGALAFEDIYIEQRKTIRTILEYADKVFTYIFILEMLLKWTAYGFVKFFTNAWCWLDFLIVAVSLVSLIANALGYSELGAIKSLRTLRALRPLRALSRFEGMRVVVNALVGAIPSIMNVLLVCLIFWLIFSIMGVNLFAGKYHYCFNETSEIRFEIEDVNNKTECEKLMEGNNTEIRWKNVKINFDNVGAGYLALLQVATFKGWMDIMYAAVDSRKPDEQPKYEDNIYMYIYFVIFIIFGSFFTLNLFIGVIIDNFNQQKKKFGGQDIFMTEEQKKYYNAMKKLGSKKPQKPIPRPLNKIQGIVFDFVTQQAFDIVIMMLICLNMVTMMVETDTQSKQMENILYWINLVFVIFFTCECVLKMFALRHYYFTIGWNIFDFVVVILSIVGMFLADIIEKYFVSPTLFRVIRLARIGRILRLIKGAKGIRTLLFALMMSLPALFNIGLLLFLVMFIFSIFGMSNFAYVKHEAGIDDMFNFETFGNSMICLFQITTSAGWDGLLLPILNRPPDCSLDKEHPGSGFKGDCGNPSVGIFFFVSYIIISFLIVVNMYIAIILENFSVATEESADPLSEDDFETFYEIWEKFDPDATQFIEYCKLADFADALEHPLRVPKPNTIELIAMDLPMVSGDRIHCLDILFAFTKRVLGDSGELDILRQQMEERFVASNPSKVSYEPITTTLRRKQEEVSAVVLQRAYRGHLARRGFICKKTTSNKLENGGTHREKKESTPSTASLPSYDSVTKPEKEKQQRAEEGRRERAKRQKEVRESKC

For `Cc1cccnc1CNC(=O)C1CCN(Cc2cccc(OCC(F)(F)F)c2)C1` (stereo not drawn) [Compound 90, 1-[3-(2,2,2-Trifluoro-ethoxy)-benzyl]-pyrrolidine-3-carboxylic acid (3-methyl-pyridin-2-ylmethyl)-amide], the IC50 (read-out: Nav1.6 Tonic) was over 20 µM and the IC50 (read-out: Nav1.6 inac) was 1 to 5 µM.

As to `Cc1cccc(CNC(=O)C2CCN(Cc3cccc(Oc4ccccc4)c3)C2)c1` (stereo not drawn) [Compound 82, 1-(3-Phenoxy-benzyl)-pyrrolidine-3-carboxylic acid 3-methyl-benzylamide], the IC50 (read-out: Nav1.6 Tonic) was in the range of 10 to 20 µM and the IC50 (read-out: Nav1.6 inac) is under 1 µM.

Take `CC(C)COc1cccc(CN2CCC(c3nnc(CO)o3)C2)c1` (stereo not drawn) [Compound 64, {5-[1-(3-Isobutoxy-benzyl)-pyrrolidin-3-yl]-[1,3,4]oxadiazol-2-yl}-methanol]: the IC50 (read-out: Nav1.6 Tonic) is over 20 µM and the IC50 (read-out: Nav1.6 inac) is 1 to 5 µM.

Regarding `O=C(NCc1ccccn1)C1(F)CCN(Cc2cccc(Oc3cccc(C(F)(F)F)c3)c2)C1` (stereo not drawn) [Compound 25, 3-Fluoro-1-[3-(3-trifluoromethyl-phenoxy)-benzyl]-pyrrolidine-3-carboxylic acid (pyridin-2-ylmethyl)-amide], the IC50 (read-out: Nav1.6 Tonic) is over 20 µM and the IC50 (read-out: Nav1.6 inac) lay within 1 to 5 µM.

For `COc1cccnc1-c1nc(C2CCN(Cc3cccc(OCC(C)C)c3)C2)no1` (stereo not drawn) [Compound 49, 2-{3-[1-(3-Isobutoxy-benzyl)-pyrrolidin-3-yl]-[1,2,4]oxadiazol-5-yl}-3-methoxy-pyridine], the IC50 reads like this: (read-out: Nav1.6 Tonic) over 20 µM; (read-out: Nav1.6 inac) 1 to 5 µM.

Regarding `Cc1ccc(Oc2cccc(CN3CCC(F)(C(=O)NCc4ccccn4)C3)c2)cc1` (stereo not drawn) [Compound 22, 3-Fluoro-1-(3-p-tolyloxy-benzyl)-pyrrolidine-3-carboxylic acid (pyridin-2-ylmethyl)-amide], the IC50 is, setting by setting: (read-out: Nav1.6 Tonic) over 20 µM; (read-out: Nav1.6 inac) 1 to 5 µM.

For `CC(C)COc1cccc(CN2CCC(c3noc(-c4cc(Cl)ccn4)n3)C2)c1` (stereo not drawn) [Compound 53, 4-Chloro-2-{3-[1-(3-isobutoxy-benzyl)-pyrrolidin-3-yl]-[1,2,4]oxadiazol-5-yl}-pyridine], the IC50 (read-out: Nav1.6 Tonic) is over 20 µM and the IC50 (read-out: Nav1.6 inac) lay in the range of 1 to 5 µM.

As to `O=C(NCc1ccccn1)C1CCN(Cc2ccc3c(c2)OC(F)(F)O3)C1` (stereo not drawn) [Compound 31, 1-(2,2-Difluoro-benzo[1,3]dioxol-5-ylmethyl)-pyrrolidine-3-carboxylic acid (pyridin-2-ylmethyl)-amide], the IC50 reads like this: (read-out: Nav1.6 Tonic) over 20 µM; (read-out: Nav1.6 inac) 1 to 5 µM.

Take `C[C@@]1(C(=O)NCc2ccccn2)CCN(Cc2cccc(Oc3ccccc3)c2)C1` [Compound 37, (R)-3-methyl-1-(3-phenoxybenzyl)-N-(pyridin-2-ylmethyl)pyrrolidine-3-carboxamide]: the IC50 is over 20 µM (read-out: Nav1.6 Tonic) and 1 to 5 µM (read-out: Nav1.6 inac).

As to `CC1(C(=O)NCc2ccccn2)CCN(Cc2coc(-c3ccccc3)n2)C1` (stereo not drawn) [Compound 99, 3-Methyl-1-(2-phenyl-oxazol-4-ylmethyl)-pyrrolidine-3-carboxylic acid (pyridin-2-ylmethyl)-amide], the IC50 by setting is: (read-out: Nav1.6 Tonic) over 20 µM; (read-out: Nav1.6 inac) 1 to 5 µM.

`O=C(NCc1ccc(F)cc1F)C1CCN(Cc2cccc(Oc3ccccc3)c2)C1` (stereo not drawn) [Compound 78, 1-(3-Phenoxy-benzyl)-pyrrolidine-3-carboxylic acid 2,4-difluoro-benzylamide]: the IC50 runs as follows: (read-out: Nav1.6 Tonic) 10 to 20 µM; (read-out: Nav1.6 inac) 1 to 5 µM.

In the case of `O=C(NCc1ccccn1)C1CCN(Cc2cccc(Oc3ccccc3F)c2)C1` (stereo not drawn) [Compound 14, 1-[3-(2-Fluoro-phenoxy)-benzyl]-pyrrolidine-3-carboxylic acid (pyridin-2-ylmethyl)-amide], the IC50 runs as follows: (read-out: Nav1.6 Tonic) over 20 µM; (read-out: Nav1.6 inac) over 5 µM.

Turning to `CC(C)COc1cccc(CN2CCC(c3noc(-c4cc(Br)ccn4)n3)C2)c1` (stereo not drawn) [Compound 58, 4-Bromo-2-{3-[1-(3-isobutoxy-benzyl)-pyrrolidin-3-yl]-[1,2,4]oxadiazol-5-yl}-pyridine], the IC50 is, setting by setting: (read-out: Nav1.6 Tonic) over 20 µM; (read-out: Nav1.6 inac) over 5 µM.

For the compound `COc1cccc(Oc2cccc(CN3CCC(C(=O)NCc4ccccn4)C3)c2)c1` (stereo not drawn) [Compound 2, 1-[3-(3-Methoxy-phenoxy)-benzyl]-pyrrolidine-3-carboxylic acid (pyridin-2-ylmethyl)-amide], the IC50 was over 20 µM (read-out: Nav1.6 Tonic) and 1 to 5 µM (read-out: Nav1.6 inac).

For `CN1CCN(C(=O)C2CCN(Cc3cccc(Oc4ccccc4)c3)C2)CC1=O` (stereo not drawn) [Compound 104, 1-Methyl-4-[1-(3-phenoxy-benzyl)-pyrrolidine-3-carbonyl]-piperazin-2-one], the IC50 runs as follows: (read-out: Nav1.6 Tonic) over 20 µM; (read-out: Nav1.6 inac) 1 to 5 µM.

Consider `Cc1cccc(Oc2cccc(CN3CCC(C)(C(=O)NCc4ccccn4)C3)c2)c1` (stereo not drawn) [Compound 45, 3-Methyl-1-(3-m-tolyloxy-benzyl)-pyrrolidine-3-carboxylic acid (pyridin-2-ylmethyl)-amide], for which the IC50 runs as follows: (read-out: Nav1.6 Tonic) over 20 µM; (read-out: Nav1.6 inac) over 5 µM.

Regarding `O=C(NCc1cc(F)ccc1F)C1CCN(Cc2cccc(Oc3ccccc3)c2)C1` (stereo not drawn) [Compound 77, 1-(3-Phenoxy-benzyl)-pyrrolidine-3-carboxylic acid 2,5-difluoro-benzylamide], the IC50 reads like this: (read-out: Nav1.6 Tonic) 10 to 20 µM; (read-out: Nav1.6 inac) under 1 µM.

As to `Cc1ccc(Oc2cccc(CN3CCC(C(=O)NCc4ccccn4)C3)c2)cc1` (stereo not drawn) [Compound 1, 1-(3-p-Tolyloxy-benzyl)-pyrrolidine-3-carboxylic acid (pyridin-2-ylmethyl)-amide], the IC50 is over 20 µM (read-out: Nav1.6 Tonic) and under 1 µM (read-out: Nav1.6 inac).

Take `O=C(NCc1ccccn1)C1CCN(Cc2cccc(OCC(F)(F)F)c2)C1` (stereo not drawn) [Compound 30, 1-[3-(2,2,2-Trifluoro-ethoxy)-benzyl]-pyrrolidine-3-carboxylic acid (pyridin-2-ylmethyl)-amide]: the IC50 by setting is: (read-out: Nav1.6 Tonic) over 20 µM; (read-out: Nav1.6 inac) under 1 µM.

For `O=C(NCc1c(F)cccc1F)C1CCN(Cc2cccc(Oc3ccccc3)c2)C1` (stereo not drawn) [Compound 79, 1-(3-Phenoxy-benzyl)-pyrrolidine-3-carboxylic acid 2,6-difluoro-benzylamide], the IC50 runs as follows: (read-out: Nav1.6 Tonic) 10 to 20 µM; (read-out: Nav1.6 inac) under 1 µM.

On to `O=C(NCc1ccc(F)c(F)c1)C1CCN(Cc2cccc(Oc3ccccc3)c2)C1` (stereo not drawn) [Compound 80, 1-(3-Phenoxy-benzyl)-pyrrolidine-3-carboxylic acid 3,4-difluoro-benzylamide], for which the IC50 (read-out: Nav1.6 Tonic) lay in the range of 10 to 20 µM and the IC50 (read-out: Nav1.6 inac) was under 1 µM.

Consider `COc1ccc(CNC(=O)C2CCN(Cc3cccc(Oc4ccccc4)c3)C2)cc1` (stereo not drawn) [Compound 66, 1-(3-Phenoxy-benzyl)-pyrrolidine-3-carboxylic acid 4-methoxy-benzylamide], for which the IC50 (read-out: Nav1.6 Tonic) was in the range of 10 to 20 µM and the IC50 (read-out: Nav1.6 inac) is under 1 µM.

As to `COc1ccccc1Oc1cccc(CN2CCC(C(=O)NCc3ccccn3)C2)c1` (stereo not drawn) [Compound 7, 1-[3-(2-Methoxy-phenoxy)-benzyl]-pyrrolidine-3-carboxylic acid (pyridin-2-ylmethyl)-amide], the IC50 was over 20 µM (read-out: Nav1.6 Tonic) and under 1 µM (read-out: Nav1.6 inac).

`COc1ccc(-c2nc(C3CCN(Cc4cccc(OCC(C)C)c4)C3)no2)nc1` (stereo not drawn) [Compound 54, 2-{3-[1-(3-Isobutoxy-benzyl)-pyrrolidin-3-yl]-[1,2,4]oxadiazol-5-yl}-5-methoxy-pyridine]: the IC50 reads like this: (read-out: Nav1.6 Tonic) over 20 µM; (read-out: Nav1.6 inac) 1 to 5 µM.
